The values below come from US5254584A, “N-acetonylbenzamides and their use as fungicides” (Rohm and Haas Company, priority 1992, dated 1993).

Values after ≈ are worked out from the molar mass of the structure shown.

Data set [1] relates to Pythium ultimum. As to the kind of experiment: Fungitoxicity assay against Pythium ultimum (in vitro, mycelial dry weight). The class given is cell-based. As to conditions: Globisporangium ultimum, 48 hours at 25° C., read-out: Pythium EC50. The protocol: The compounds of Examples 1-20 were tested in vitro for fungicidal activity and phytotoxicity. A. The compounds were tested in vitro for fungicidal activity against Pythium ultimum, Botrytis cinerea and Venturia inaequalis. Fungitoxicity assay against Pythium ultimum: A dilution series of test compound was prepared in dimethylsulfoxide, and 0.1 milliliter (ml) of each dilution was added to 19.9 ml of a liquid asparagine-sucrose broth ([…]. and Katznelson, K., 1971, Can. J. […] Each plate was inoculated with a mycelial plug, 7 millimeters (mm) in diameter, taken from the growing edge of a culture of Pythium ultimum grown on potato dextrose agar. Two replicate plates were used for each treatment. The increase in mycelial dry weight was determined after growth for 48 hours at 25° C. with shaking on a gyrotary shaker at 60 revolutions per minute (rpm). EC50 values were calculated from dose response curves. As used herein, the terminology "EC50" means the concentration of test compound required to inhibit growth by 50% as compared to a control lacking the test compound. Results of the testing for fungicidal activity against the above named fungi are set forth below in Table 3 as Pythium EC50 (ppm), Botrytis EC50 (ppm) and Venturia MIC (ppm), respectively.

The subject of data set [2] is Botrytis cinerea. As to the kind of experiment: Fungitoxicity assay against Botrytis cinerea (in vitro, colony diameter). The data set is classed as cell-based. As to conditions: 48 hours at 25° C., read-out: Botrytis EC50. Here is the method:
The compounds of Examples 1-20 were tested in vitro for fungicidal activity and phytotoxicity. A. The compounds were tested in vitro for fungicidal activity against Pythium ultimum, Botrytis cinerea and Venturia inaequalis. Fungitoxicity assay against Botrytis cinerea: […] The mixtures were poured immediately into 9 centimeter (cm) diameter petri dishes. Two replicate plates were used for each treatment. Each plate was inoculated with a 7 mm diameter plug taken from the growing edge of a 5 day old culture of B. cinerea on potato dextrose agar. […] Results of the testing for fungicidal activity against the above named fungi are set forth below in Table 3 as Pythium EC50 (ppm), Botrytis EC50 (ppm) and Venturia MIC (ppm), respectively.

The test system of a further data set is Venturia inaequalis. As to the kind of experiment: Fungitoxicity assay against Venturia inaequalis (in vitro, microtiter MIC). The data set is classed as cell-based. As to conditions: 168 h, minimum inhibitory concentration, 7 days at 25° C. The protocol:
The compounds of Examples 1-20 were tested in vitro for fungicidal activity and phytotoxicity. A. The compounds were tested in vitro for fungicidal activity against Pythium ultimum, Botrytis cinerea and Venturia inaequalis. Fungitoxicity assay against Venturia inaequalis: Test compounds were dissolved in dimethylsulfoxide at 1 milligram per milliliter (mg/ml), and 50 ul added to 950 ul of yeast extract-dextrose medium (YED, 0.4% yeast extract, 2% dextrose) to give 50 part per million (ppm) solutions. Minimum inhibitory concentration (MIC) values were determined using a microtiter assay with twofold serial dilutions of the prepared 50 ppm solutions (100 ul) in YED medium. Inoculum consisted of a spore suspension of V. inaequalis in YED medium at 2.5×10^5 spores per ml. […] Results of the testing for fungicidal activity against the above named fungi are set forth below in Table 3 as Pythium EC50 (ppm), Botrytis EC50 (ppm) and Venturia MIC (ppm), respectively.

A short description of data set [3]: Tobacco root assay for phytotoxicity (in vitro root elongation). As to conditions: 7 days, 27° C., read-out: Tob. EC50. Here is the method: The compounds of Examples 1-20 were tested in vitro for fungicidal activity and phytotoxicity.
B. The compounds were tested in vitro for phytotoxicity in a tobacco root elongation assay.
Tobacco root assay for Phytotoxicity:
A dilution series of test compound was prepared in dimethylsulfoxide and 20 ul of each dilution was added to 20 ml of molten nutrient medium, consisting of Murashige and Skoog salt base, 2% sucrose and 1% agar, to give the desired concentrations of test compound. The mixtures were poured immediately into 9 cm diameter petri dishes. Surface-sterilized tobacco seeds were placed on each plate (20 seeds per plate) and the plates incubated in a vertical position in a 27° C. incubator with a 16 hour photoperiod. After 7 days the mean root lengths were calculated, and EC50 values determined from dose response curves.
Results of the tobacco root assay are set forth below in Table 3 as Tob. EC50 (ppm).

The next data set deals with Piricularia oryzae. The data set can be described thus: organism not typed. The data set is classed as cell-based. As to conditions: 72 h, read-out: PIR percent inhibition of fungal growth.
The test system of another data set is Fusarium roseum. The data set can be described thus: microbe, parasite or virus in culture. The class given is cell-based. As to conditions: Fusarium sambucinum, 72 h, read-out: FUS percent inhibition of fungal growth.
In data set [4] the test system is Pseudocercosporella herpotrichoides. The data set can be described thus: microbe, parasite or virus in culture. The class given is cell-based. As to conditions: Oculimacula yallundae, 72 h, 3 days at room temperature, read-out: PSH percent inhibition of fungal growth.
A further data set concerns Phytophthora capsici. The data set can be described thus: microbe, parasite or virus in culture. The data set is classed as cell-based. As to conditions: 72 h, 3 days at room temperature, read-out: PHY percent inhibition of fungal growth.
In data set [5] the test system is Pythium ultimum. The data set can be described thus: microbe, parasite or virus in culture. The class given is cell-based. As to conditions: Globisporangium ultimum, 72 h, 3 days at room temperature, read-out: PYU percent inhibition of fungal growth.
Another data set concerns Monilinia fructicol. The data set can be described thus: microbe, parasite or virus in culture. The data set is classed as cell-based. As to conditions: 72 h, 3 days at room temperature, read-out: MON percent inhibition of fungal growth.
Data set [6] concerns Colletotrichum lagenarium. As to the kind of experiment: microbe, parasite or virus in culture. The data set is classed as cell-based. As to conditions: Colletotrichum orbiculare, 72 h, 3 days at room temperature, read-out: COL percent inhibition of fungal growth.
Another data set concerns Rhizoctonia solani. As to the kind of experiment: microbe, parasite or virus in culture. The class given is cell-based. As to conditions: 72 h, 3 days at room temperature, read-out: RHI percent inhibition of fungal growth.
The subject of data set [7] is Botrytis cinerea. The data set can be described thus: microbe, parasite or virus in culture. As to conditions: 72 h, 3 days at room temperature, read-out: BOC percent inhibition of fungal growth. The data set is classed as cell-based.
In a further data set the test system is Cercospora beticola. The data set can be described thus: microbe, parasite or virus in culture. As to conditions: 72 h, 3 days at room temperature, read-out: CER percent inhibition of fungal growth. The data set is classed as cell-based.

With `CCC(C)(NC(=O)c1cccc(C(C)=NOC)c1)C(=O)CCl` (stereo not drawn) [Example 17], the IC50 in the data set with Pythium ultimum [1] turned out to be 24.2 µg/mL (≈ 74.5 µM); in the data set with Botrytis cinerea [2], 97.3 µg/mL (≈ 300 µM). The MIC (commonly the lowest concentration found to suppress growth) against Venturia inaequalis is greater than 25 µg/mL.

Take `CCC(C)(NC(=O)c1ccc(C=NOC)c(Cl)c1)C(=O)CCl` (stereo not drawn) [Example 16, N-[3'-(1'-chloro-3'-methyl-2'-oxopentan)]-3-chloro-4-methoxyiminomethylbenzamide]: in data set [3], the IC50 at 168 h was 11.3 µg/mL (≈ 32.8 µM). In addition, the IC50 is 0.58 µg/mL (≈ 1.68 µM) with Pythium ultimum [1] and 12.6 µg/mL (≈ 36.5 µM) in the data set on Botrytis cinerea [2]. In the data set on Venturia inaequalis, this molecule had a minimum inhibitory concentration (MIC) of 6.25 µg/mL (≈ 18.1 µM).

Turning to `CCC(C)(NC(=O)c1ccc(C(C)=NOC)cc1)C(=O)CCl` (stereo not drawn) [Example 19, 3-(4'-Methoxyiminomethyl(methyl)benzamido)-1-chloro-3-methylpentan-2-one], the figures for the IC50 with Pythium ultimum [1] and in the data set with Botrytis cinerea [2] were greater than 10 µg/mL and greater than 100 µg/mL, respectively. This molecule displayed an MIC against Venturia inaequalis greater than 25 µg/mL.

Regarding `CCC(C)(NC(=O)c1ccc(Cl)c(C=NOC)c1)C(=O)CCl` (stereo not drawn) [Example 14, N-[3'-(1'-chloro-3'-methyl-2'-oxopentan)]-4-chloro-3-methoxyiminomethylbenzamide], in data set [3], the IC50 at 168 h was 1.25 µg/mL (≈ 3.62 µM). The IC50 was 4.68 µg/mL (≈ 13.6 µM) in the data set on Pythium ultimum [1] and 28.1 µg/mL (≈ 81.4 µM) in the data set on Botrytis cinerea [2]. Also, the MIC against Venturia inaequalis was 25 µg/mL (≈ 72.4 µM).

As for `CCC(C)(NC(=O)c1cc(C)cc(C=NO)c1)C(=O)CCl` (stereo not drawn) [Example 18], the results for the IC50 in the data set with Pythium ultimum [1] and in the data set with Botrytis cinerea [2] were 5.95 µg/mL (≈ 19.1 µM) and 53.9 µg/mL (≈ 173 µM), respectively. This molecule also displayed a minimal inhibitory concentration (MIC) in the data set with Venturia inaequalis greater than 25 µg/mL.

With `CCC(C)(NC(=O)c1cccc(C=NOC(C)(C)C)c1)C(=O)CCl` (stereo not drawn) [Example 8], the IC50 at 168 h in data set [3] was 46.8 µg/mL (≈ 133 µM). Moreover, the IC50 was 173 µg/mL (≈ 489 µM) in the data set on Pythium ultimum [1] and greater than 100 µg/mL with Botrytis cinerea [2]. The same molecule yielded an MIC against Venturia inaequalis greater than 25 µg/mL.

Consider `CCON=Cc1cccc(C(=O)NC(C)(CC)C(=O)CCl)c1` (stereo not drawn) [Example 3], for which, in data set [3], the IC50 at 168 h came out at 5.35 µg/mL (≈ 16.5 µM). For the same molecule, the IC50 in the data set with Pythium ultimum [1] was found to be 2.07 µg/mL (≈ 6.37 µM); in the data set on Botrytis cinerea [2], 21.8 µg/mL (≈ 67.1 µM). This molecule also registered a minimal inhibitory concentration (MIC) against Venturia inaequalis of 6.25 µg/mL (≈ 19.2 µM).

Regarding `CCON=Cc1cccc(C(=O)NC(C)(CC)C(=O)C(Cl)Cl)c1` (stereo not drawn) [Example 4], the IC50 in the data set with Pythium ultimum [1] came to 68.4 µg/mL (≈ 190 µM); in the data set with Botrytis cinerea [2], 68.9 µg/mL (≈ 192 µM). This molecule also gave an MIC with Venturia inaequalis greater than 25 µg/mL.

For the molecule `CCC(C)(NC(=O)c1cccc(C=NOC)c1)C(=O)C(Cl)Cl` (stereo not drawn) [Example 5, 3-(3'-Methoxyiminomethylbenzamido)-1,1-dichloro-3-methylpentan-2-one], the IC50 in the data set with Pythium ultimum [1] was 16.3 µg/mL (≈ 47.2 µM); in the data set on Botrytis cinerea [2], 54.6 µg/mL (≈ 158 µM). In the data set with Venturia inaequalis, this molecule showed an MIC greater than 25 µg/mL.

Turning to `CCC(C)(NC(=O)c1cc(Cl)c(C=NOC)c(Cl)c1)C(=O)CCl` (stereo not drawn) [Example 20, N-[3'-(1'-chloro-3'-methyl-2'-oxopentan)]-3,5-dichloro-4-methoxyiminobenzamide], the IC50 at 168 h in [3] stood at 1 µg/mL (≈ 2.63 µM). In addition, the IC50 in the data set with Pythium ultimum [1] came out at 0.23 µg/mL (≈ 0.606 µM).

As for `CCC(C)(NC(=O)c1cccc(C=NOCC(=O)OC)c1)C(=O)CCl` (stereo not drawn) [Example 7], the IC50 at 168 h in data set [3] is 9.48 µg/mL (≈ 25.7 µM). Moreover, the IC50 is 22.8 µg/mL (≈ 61.8 µM) with Pythium ultimum [1] and greater than 100 µg/mL with Botrytis cinerea [2]. This molecule also registered a minimal inhibitory concentration (MIC) against Venturia inaequalis greater than 25 µg/mL.

For `CCC(C)(NC(=O)c1cc(C=NOC)cc(C=NOC)c1)C(=O)CCl` (stereo not drawn) [Example 15, N-[3'-(1'-chloro-3'-methyl-2'-oxopentan)]-3,5-dimethoxyiminomethylbenzamide], in data set [3], the IC50 at 168 h was found to be 2.33 µg/mL (≈ 6.33 µM). Besides, the IC50 stood at 4.16 µg/mL (≈ 11.3 µM) in the data set with Pythium ultimum [1] and 4.19 µg/mL (≈ 11.4 µM) in the data set with Botrytis cinerea [2]. The MIC against Venturia inaequalis was 1.56 µg/mL (≈ 4.24 µM).

Regarding `CCC(C)(NC(=O)c1ccc(C=NOC)cc1)C(=O)CCl` (stereo not drawn) [Example 10, 3-(4'-Methoxyiminomethylbenzamido)-1-chloro-3-methylpentan-2-one], the IC50 at 168 h in [3] worked out at 21.7 µg/mL (≈ 69.8 µM). For the same molecule, in the data set on Pythium ultimum [1], the IC50 came out at 1.57 µg/mL (≈ 5.05 µM).

For `CON=Cc1cccc(C(=O)NC(C)(C)C(=O)CCl)c1` [Example 2, 3-(3'-Methoxyiminomethylbenzamido)-1-chloro-3-methylbutan-2-one], the IC50 at 168 h in data set [3] was found to be 4.94 µg/mL (≈ 16.6 µM). Further, the IC50 in the data set on Pythium ultimum [1] amounted to 1.61 µg/mL (≈ 5.43 µM); in the data set on Botrytis cinerea [2], 71.3 µg/mL (≈ 240 µM). The lowest concentration to inhibit growth in the data set with Venturia inaequalis (MIC) was 12.5 µg/mL (≈ 42.1 µM).

Turning to `CCC(C)(NC(=O)c1cc(Cl)cc(C=NOC)c1)C(=O)CCl` (stereo not drawn) [Example 9, N-[3'-(1'-chloro-3'-methyl-2'-oxopentan)]-3-chloro-5-methoxyiminomethylbenzamide], the inhibition – broadly, the relative decrease from the control value, in per cent – at 25 ppm with Piricularia oryzae came out at 100%; in the data set with Fusarium roseum, 75%; in [4] it was 100%; in the data set on Phytophthora capsici, 100%; in the data set with Pythium ultimum [5], 100%; with Monilinia fructicol, 100%. The inhibition at 25 ppm in data set [6] was 90%; in the data set with Rhizoctonia solani, 90%; with Botrytis cinerea [7] it was 90%; in the data set with Cercospora beticola it was 100%. The IC50 at 168 h in [3] was 0.06 µg/mL (≈ 0.174 µM). For the same molecule, the figures for the IC50 in the data set on Pythium ultimum [1] and in the data set with Botrytis cinerea [2] were 0.05 µg/mL (≈ 0.145 µM) and 0.25 µg/mL (≈ 0.724 µM), respectively. The molecule further came in with an MIC against Venturia inaequalis of 0.05 µg/mL (≈ 0.145 µM).

With `CCC(C)(NC(=O)c1cccc(C=NOC)c1)C(=O)CSC#N` (stereo not drawn) [Example 13, N-[3'-(1'-thiocyano-3'-methyl-2'oxopentan)]-3-methoxyiminomethylbenzamide], in [3], the IC50 at 168 h was greater than 20 µg/mL. The IC50 in the data set on Pythium ultimum [1] worked out at 7.38 µg/mL (≈ 22.1 µM).
